Experimental data from patent publication US11274090B2, “P300/CBP HAT inhibitors” (Constellation Pharmaceuticals, Inc., priority 2018, dated 2022).

Molecular target: p300 HAT domain (residues 1287-1666) (Homo sapiens (Human), UniProt Q09472)
Test: p300 HAT SPA assay (scintillation proximity assay, acetylation of biotinylated H3(1-21) peptide)
Type: biochemical
Conditions: average of at least 2 replicate titrations
Protocol: In a typical experiment the p300 HAT inhibitory activity of the compounds described herein was determined in accordance with the following experimental method.
The expressed protein was purified by Ni2+ affinity, followed by anion exchange chromatography. Appropriate fractions were pooled and buffer exchanged into 20 mM Hepes pH 7.5, 150 mM NaCl, and 1 mM TCEP.
35 μL of the reaction volume was transferred to a 384-well streptavidin FlashPlate (PerkinElmer) using a Bravo liquid handler (Velocity 11) and incubated for 1.5 hr at RT. […] Data were analyzed in Genedata to determine inhibitor IC50 values.

Chain of p300 HAT domain (residues 1287-1666) (Q09472 1287-1666): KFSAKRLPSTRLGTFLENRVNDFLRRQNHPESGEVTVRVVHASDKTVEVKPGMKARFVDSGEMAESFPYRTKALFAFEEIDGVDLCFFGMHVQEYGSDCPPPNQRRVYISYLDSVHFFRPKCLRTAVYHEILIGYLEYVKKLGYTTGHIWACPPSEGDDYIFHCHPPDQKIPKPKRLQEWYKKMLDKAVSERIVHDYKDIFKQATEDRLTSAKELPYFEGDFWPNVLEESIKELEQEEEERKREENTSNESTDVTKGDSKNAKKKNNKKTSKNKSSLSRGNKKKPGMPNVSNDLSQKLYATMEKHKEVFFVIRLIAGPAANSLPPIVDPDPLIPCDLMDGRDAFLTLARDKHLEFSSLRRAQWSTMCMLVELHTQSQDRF

| SMILES | IC50 [nM] |
| --- | --- |
| Cc1cc(C#N)ccc1CCNC(C(=O)Nc1ccc(-c2cnn(C)c2)cn1)c1ccccc1 (single isomer, unassigned) [41 Isomer 2] | 1790 |
| N#Cc1ccc(CCNC(C(=O)Nc2ccc(N3CCOCC3)cn2)c2ccccc2)cc1 (single isomer, unassigned) [81 Isomer 1] | 139 |
| N#Cc1ccc(CCNC(C(=O)Nc2ccc(N3CCN(CC(F)(F)F)CC3)cn2)c2ccccc2)cc1 (single isomer, unassigned) [40 Isomer 1] | 190 |
| N#Cc1ccc(CCNC(C(=O)Nc2ccc(N3CCC4(COC4)C3)cn2)c2ccccc2)cc1 (single isomer, unassigned) [96 Isomer 2] | > 2000 |
| Cc1c(-c2ccc(NC(=O)C(NC[C@@H](C)c3ccc(C#N)cc3)c3ccccc3)nc2)cnn1C (single isomer, unassigned) [114 Isomer 1] | 528 |
| CC(CNC(C(=O)Nc1ccc(-c2cnn(C)n2)cn1)c1ccccc1)c1ccc(C(F)(F)F)cc1 (single isomer, unassigned) [99 Isomer 4] | 28.3 |
| CC(CNC(C(=O)Nc1ccc(-c2cnn(C(C)(C)C#N)c2)cn1)c1ccccc1)c1ccc(C#N)cc1 (single isomer, unassigned) [47 Isomer 3] | > 2000 |
| Cc1nc(-c2ccc(NC(=O)C(NC[C@@H](C)c3ccc(C#N)cc3)c3ccccc3)nc2)no1 (single isomer, unassigned) [107 Isomer 1] | > 2000 |
| Cc1nnc2n1CCN(c1ccc(NC(=O)C(NCCc3ccc(C#N)cc3)c3ccccc3)nc1)C2 (single isomer, unassigned) [60 Isomer 2] | > 2000 |
| CCN1CCN(c2ccc(NC(=O)C(NC[C@@H](C)c3ccc(C#N)cc3)c3ccccc3)nc2)CC1=O (single isomer, unassigned) [102 Isomer 2] | 1550 |
| Cn1cc(-c2ccc(NC(=O)C(NCCc3ccc(C(F)(F)F)nc3)c3ccccc3)nc2)cn1 (single isomer, unassigned) [140 Isomer 2] | > 2000 |
| Cn1cc(-c2ccc(NC(=O)C(NCCc3ccc(C#N)cc3)c3ccccc3Cl)nc2)cn1 (single isomer, unassigned) [88 Isomer 2] | > 2000 |
| Cn1cc(-c2ccc(NC(=O)C(NCCc3ccc(C#N)cc3)C3CCCCC3)nc2)cn1 (single isomer, unassigned) [89 Isomer 1] | > 2000 |
| Cc1nc(NC(=O)C(NCC(C)c2ccc(C#N)cc2)c2ccccc2)ccc1-c1cnn(C)c1 (single isomer, unassigned) [39 Isomer 2] | > 2000 |
| Cn1cc(-c2ccc(NC(=O)C(NCCc3c(F)cc(C#N)cc3F)c3ccccc3)nc2)cn1 (racemic) [86 racemic, (S)- and (R)-2-((4-cyano-2,6-difluorophenEthyl)amino)-N-(5-(1-methyl-1H-pyrazol-4-yl)pyridin-2-yl)-2-phenylacetamide] | 169 |
| Cn1cc(-c2cnc(NC(=O)C(NCCc3ccc(C#N)cc3)c3ccccc3)c(Cl)c2)cn1 (single isomer, unassigned) [43 Isomer 2] | > 5000 |
| CC1C(=O)N(C)CCN1c1ccc(NC(=O)C(NC[C@@H](C)c2ccc(C#N)cc2)c2ccccc2)nc1 (single isomer, unassigned) [126 Isomer 3] | > 2000 |
| C[C@H](CNC(C(=O)Nc1ccc(C2CC(=O)N(C)C2)cn1)c1ccccc1)c1ccc(C#N)cc1 (single isomer, unassigned) [109 Isomer 2] | > 2000 |
| CC1(C)CCN(c2ccc(NC(=O)C(NCCc3ccc(C#N)cc3)c3ccccc3)nc2)CC1 (single isomer, unassigned) [65 Isomer 1] | 477 |
| Cn1cc(-c2ccc(NC(=O)C(NCCc3ccc(C#N)cc3)c3ccc(C#N)cc3)nc2)cn1 (single isomer, unassigned) [119 Isomer 1] | 374 |

| SMILES | IC50 [nM] |
| --- | --- |
| COC1CN(c2ccc(NC(=O)C(NCC(C)c3ccc(C#N)cc3)c3ccccc3)nc2)C1 (single isomer, unassigned) [32 Isomer 1] | > 2000 |
| Cc1nc(-c2ccc(NC(=O)C(NC[C@@H](C)c3ccc(C#N)cc3)c3ccccc3)nc2)no1 (single isomer, unassigned) [107 Isomer 2] | 72.3 |
| Cn1cc(-c2ccc(NC(=O)C(NCCc3ccc(C#N)cc3)c3cccc(C(F)(F)F)c3)nc2)cn1 (single isomer, unassigned) [117 Isomer 1] | > 2000 |
| CC(CNC(C(=O)Nc1ccc(-c2cnn(C(C)(C)CO)c2)cn1)c1ccccc1)c1ccc(C#N)cc1 (single isomer, unassigned) [8 Isomer 2] | 1350 |
| CCCCCCc1cccc(C(NCCc2ccc(C#N)cc2)C(=O)Nc2ccc(-c3cnn(C)c3)cn2)c1 (single isomer, unassigned) [118 Isomer 2] | 1900 |
| Cn1cc(-c2ccc(NC(=O)C(NCCc3ccc(S(N)(=O)=O)cc3)c3ccccc3)cc2)cn1 (single isomer, unassigned) [4 Isomer 1] | 4990 |
| Cn1cc(-c2ccc(NC(=O)C(NCCc3ccc(Cl)cc3C#N)c3ccccc3)nc2)cn1 (single isomer, unassigned) [94 Isomer 2] | > 2000 |
| CC(CNC(C(=O)Nc1ccc(-c2cnn(C)n2)cn1)c1ccccc1)c1ccc(C#N)cc1 (single isomer, unassigned) [98 Isomer 1] | 571 |
| COc1cccc(C(NCCc2ccc(C#N)cc2)C(=O)Nc2ccc(-c3cnn(C)c3)cn2)c1 (single isomer, unassigned) [70 Isomer 2] | 243 |
| Cc1ccc(CCNC(C(=O)Nc2ccc(-c3cnn(C)c3)cn2)c2ccccc2)cn1 (single isomer, unassigned) [141 Isomer 2] | > 2000 |
| CC(CNC(C(=O)Nc1ccc(-c2cnn(C(C)(C)C#N)c2)cn1)c1ccccc1)c1ccc(C#N)cc1 (single isomer, unassigned) [47 Isomer 2] | 24.2 |
| CN1CCN(c2ccc(NC(=O)C(NCCc3ccc(C#N)cc3)c3ccccc3)nc2)CCC1=O (single isomer, unassigned) [71 Isomer 2] | > 2000 |
| Cn1cc(-c2ccc3c(c2)CCCN3C(=O)[C@@H](NCCc2ccc(C#N)cc2)c2ccccc2)cn1 (single isomer, unassigned) [151 Isomer 2] | > 5000 |
| Cc1ncc(C(C)CNC(C(=O)Nc2ccc(-c3cnn(C)c3)cn2)c2ccccc2)cn1 (single isomer, unassigned) [150 Isomer 1] | > 2000 |
| Cn1cc(-c2ccc(NC(=O)C(NCCc3ccc(C#N)cc3C(F)(F)F)c3ccccc3)nc2)cn1 (single isomer, unassigned) [95 Isomer 1] | 41.4 |
| CC(CNC(C(=O)Nc1ccc(N2CCN(C)C(=O)C2)cn1)c1ccccc1)c1ccc(C#N)cc1 (single isomer, unassigned) [101 Isomer 3] | 355 |
| CC1C(=O)N(C)CCN1c1ccc(NC(=O)C(NC[C@@H](C)c2ccc(C#N)cc2)c2ccccc2)nc1 (single isomer, unassigned) [126 Isomer 4] | 22 |
| Cn1cc(-c2ccc(NC(=O)C(NCCc3ccc(C#N)cc3C(F)(F)F)c3ccccc3)nc2)cn1 (single isomer, unassigned) [95 Isomer 2] | 1010 |
| CN1CCN(c2ccc(NC(=O)C(NCCc3ccc(Cl)cc3)c3ccccc3)nc2)CC1 (single isomer, unassigned) [69 Isomer 1] | 35.8 |
| N#Cc1ccc(CCNC(C(=O)Nc2ccc(N3CCC4(COC4)C3)cn2)c2ccccc2)cc1 (single isomer, unassigned) [96 Isomer 1] | 67.4 |
